Some test systems named below: MDA-MB-231; CCRF-CEM; SW-620; SK-MEL-28; LOX IMVI; M14; NCI-H23; HL-60; IGROV-1; Malme-3M; MCF7; SF-268; BT-549; PC-3; ACHN; HT-29; NCI-H226; SF-295; DU-145; KM12.
Test in all cases: NCI anticancer screen, dose series, 48 h

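These data come from cells grown in 96-well plates and exposed to compound for 48 hours at five concentrations. The concentration for 50% growth inhibition is given as GI50.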 The source made the active and inactive calls. Cut-off read from the data, not from the text of the source: active = GI50 up to about 1.1 µM and inactive = higher. Some results are limits rather than exact numbers.

Take `NS(=O)(=O)c1ccc(NC(=O)Nc2cccc3ccccc23)cc1`: the GI50 with MDA-MB-231 is 19.4 µM (inactive); in the test on CCRF-CEM, > 100 µM (inactive); in the test on SW-620, 44.8 µM (inactive); with SK-MEL-28, 39.4 µM (inactive); in the test with LOX IMVI, 43.1 µM (inactive); with M14, 86.9 µM (inactive). Besides, the GI50 in the test on NCI-H23 is 34.4 µM (inactive); in the test with HL-60, > 100 µM (inactive); in the test on IGROV-1, 53.6 µM (inactive); in the test with Malme-3M, 35.7 µM (inactive); in the test on MCF7 it was 31.2 µM (inactive); in the test on SF-268, 19.9 µM (inactive). Besides, the GI50 was 87.1 µM (inactive) in the test with BT-549; 20.2 µM (inactive) in the test on PC-3; 33.2 µM (inactive) in the test with ACHN; 60.3 µM (inactive) in the test with HT-29; 27.2 µM (inactive) in the test on NCI-H226; 35.6 µM (inactive) in the test with SF-295. Moreover, the GI50 in the test on DU-145 is 23.8 µM (inactive); in the test with KM12 it was > 100 µM (inactive).
Consider `COc1cccc2c3cccc(OC)c3c3[nH]cnc3c12`, for which the GI50 was 1.87 µM (inactive) with MDA-MB-231; 0.923 µM (active) in the test with CCRF-CEM; 1.73 µM (inactive) with SW-620; 5.24 µM (inactive) in the test with SK-MEL-28; 1.98 µM (inactive) in the test with LOX IMVI; 1.71 µM (inactive) in the test with M14. For the same molecule, the GI50 in the test on NCI-H23 was 1.84 µM (inactive); with HL-60, 0.785 µM (active); in the test with IGROV-1 it was 1.76 µM (inactive); in the test on Malme-3M, 3.88 µM (inactive); in the test on MCF7 it was 1.58 µM (inactive); with SF-268 it was 4.54 µM (inactive). In addition, the GI50 was 16.1 µM (inactive) with BT-549; 2.03 µM (inactive) with PC-3; 8.81 µM (inactive) in the test with ACHN; 1.64 µM (inactive) in the test with HT-29; 15.9 µM (inactive) in the test on NCI-H226; 4.78 µM (inactive) in the test with SF-295. The GI50 in the test with DU-145 was 1.31 µM (inactive); with KM12, 2.02 µM (inactive).
For `C=C1[C@H](OCC(C)C)[C@@H](OC(=O)C(C)CC)[C@@H](O)C(C)(C)/C=C/[C@H](C)C(=O)[C@@]2(O)C[C@H](C)[C@H](O)[C@@H]2[C@H]1OC(=O)C(C)CC` (some centres undefined), the GI50 is 4.01 µM (inactive) in the test with MDA-MB-231; 0.564 µM (active) with CCRF-CEM; 5.24 µM (inactive) with SW-620; 10.2 µM (inactive) with SK-MEL-28; 4.2 µM (inactive) in the test on LOX IMVI; 2.15 µM (inactive) in the test with M14. Moreover, the GI50 in the test on NCI-H23 was 5.2 µM (inactive); in the test with HL-60 it was 1.05 µM (active); with IGROV-1, 7.98 µM (inactive); with Malme-3M, 6.62 µM (inactive); with MCF7 it was 5.92 µM (inactive); in the test with SF-268, 4.78 µM (inactive). For the same molecule, the GI50 with BT-549 is 4.63 µM (inactive); in the test on PC-3, 2.82 µM (inactive); with ACHN, 3.02 µM (inactive); in the test on HT-29, 2.56 µM (inactive); in the test with NCI-H226, 5.73 µM (inactive); in the test with SF-295, 2.39 µM (inactive). Besides, the GI50 in the test on DU-145 was 7.83 µM (inactive); with KM12, 5.41 µM (inactive).
For `O=C(Oc1ccc(OC(Oc2ccccc2)c2ccccc2)cc1)c1ccccc1` (centres undefined), the GI50 was 28 µM (inactive) in the test with MDA-MB-231; 17.3 µM (inactive) in the test with CCRF-CEM; > 31.6 µM (inactive) in the test with SW-620; 17.1 µM (inactive) in the test with SK-MEL-28; 22.1 µM (inactive) in the test on LOX IMVI; 8.38 µM (inactive) in the test on M14. Moreover, the GI50 in the test on NCI-H23 was 6.21 µM (inactive); with HL-60, 16.3 µM (inactive); in the test on IGROV-1 it was 15.2 µM (inactive); in the test with Malme-3M, 13.2 µM (inactive); in the test on MCF7, 29.8 µM (inactive); in the test on SF-268 it was 13 µM (inactive). For the same molecule, the GI50 with BT-549 was 26.5 µM (inactive); with PC-3, 25.6 µM (inactive); with ACHN, 26.7 µM (inactive); in the test with HT-29 it was 22.9 µM (inactive); with NCI-H226 it was > 31.6 µM (inactive); in the test on SF-295 it was 14.7 µM (inactive). Moreover, the GI50 with DU-145 was > 31.6 µM (inactive); in the test on KM12 it was 18.7 µM (inactive).
Take `CN(Cc1ccccc1)/C(=N\C#N)N(Cc1ccccc1)Cc1ccccc1`: the GI50 was 20.6 µM (inactive) in the test with MDA-MB-231; 37.2 µM (inactive) in the test with CCRF-CEM; 40.4 µM (inactive) in the test with SW-620; 27.3 µM (inactive) with SK-MEL-28; 16.4 µM (inactive) in the test with LOX IMVI; 20.3 µM (inactive) in the test on M14. Moreover, the GI50 in the test on NCI-H23 is 21.9 µM (inactive); with HL-60 it was 30.1 µM (inactive); in the test with IGROV-1, 24.3 µM (inactive); in the test on Malme-3M it was 25.2 µM (inactive); in the test with MCF7, 22.3 µM (inactive); with SF-268 it was 34.4 µM (inactive). The GI50 in the test on BT-549 is 19.3 µM (inactive); in the test with PC-3, 14.8 µM (inactive); in the test with ACHN, 24.3 µM (inactive); in the test on HT-29 it was 14.7 µM (inactive); with NCI-H226, 28.8 µM (inactive); in the test on SF-295, 14.1 µM (inactive). The GI50 is 39.9 µM (inactive) in the test with DU-145 and 18.7 µM (inactive) with KM12.
Consider `O=C1CSC2(CC(/C=C/c3cccs3)=NN2c2cccc(S(=O)(=O)O)c2)N1c1nc2ccccc2s1` (centres undefined), for which the GI50 in the test on MDA-MB-231 is > 100 µM (inactive); in the test on CCRF-CEM it was 33 µM (inactive); in the test on SW-620, > 100 µM (inactive); in the test with SK-MEL-28, > 100 µM (inactive); in the test with LOX IMVI, 48.4 µM (inactive); in the test with M14 it was > 100 µM (inactive). The GI50 with NCI-H23 is 42.7 µM (inactive); with HL-60 it was > 100 µM (inactive); with IGROV-1 it was 27.4 µM (inactive); with Malme-3M it was > 100 µM (inactive); in the test on MCF7 it was 54.1 µM (inactive); in the test with SF-268, > 100 µM (inactive). Moreover, the GI50 with BT-549 is 11.9 µM (inactive); in the test on PC-3, > 100 µM (inactive); with ACHN, 68.9 µM (inactive); in the test on HT-29 it was > 100 µM (inactive); in the test on NCI-H226 it was 39.9 µM (inactive); in the test on DU-145, > 100 µM (inactive). The GI50 in the test with KM12 was > 100 µM (inactive).
As for `COc1ccc(C(CC(C)=O)c2c(O)c3ccccc3oc2=O)cc1OC` (centres undefined), the GI50 in the test with MDA-MB-231, in the test with CCRF-CEM, in the test with SW-620, in the test with SK-MEL-28, in the test on LOX IMVI and with M14 was > 100 µM (inactive) in each case. Also, the GI50 with NCI-H23, with HL-60, in the test with IGROV-1, in the test on Malme-3M, with MCF7 and in the test on SF-268 was > 100 µM (inactive) each time. Also, the GI50 with BT-549, with PC-3, in the test with ACHN, with HT-29, with NCI-H226 and in the test with SF-295 was > 100 µM (inactive) each time. In addition, the GI50 in the test on DU-145 and in the test with KM12 was > 100 µM (inactive) each time.
Consider `N#Cc1c(Cl)nc2ccccc2c1N=[N+]=[N-]`, for which the GI50 was 1.89 µM (inactive) with MDA-MB-231; 1.41 µM (inactive) in the test on CCRF-CEM; 1.73 µM (inactive) in the test on SW-620; 2.95 µM (inactive) in the test on SK-MEL-28; 1.67 µM (inactive) in the test with LOX IMVI; 2.84 µM (inactive) in the test on M14. Further, the GI50 in the test on NCI-H23 was 2.52 µM (inactive); with HL-60, 1.8 µM (inactive); in the test with IGROV-1, 1.95 µM (inactive); in the test on Malme-3M, 2.18 µM (inactive); in the test on MCF7, 4.56 µM (inactive); in the test with SF-268 it was 3.24 µM (inactive). Further, the GI50 in the test on BT-549 was 1.8 µM (inactive); in the test with PC-3 it was 2.65 µM (inactive); with ACHN, 2.11 µM (inactive); in the test with HT-29 it was 1.92 µM (inactive); in the test with NCI-H226, 12.5 µM (inactive); in the test on SF-295, 8.55 µM (inactive). For the same molecule, the GI50 was 14.9 µM (inactive) in the test with DU-145 and 6.4 µM (inactive) in the test on KM12.
Consider `Cc1ccc(S(=O)(=O)NNC(=O)Nc2ccc([N+](=O)[O-])cc2)cc1`, for which the GI50 was 22.1 µM (inactive) in the test on MDA-MB-231; 45.3 µM (inactive) in the test with CCRF-CEM; 33 µM (inactive) in the test on SW-620; > 100 µM (inactive) in the test with SK-MEL-28; 52.4 µM (inactive) in the test with LOX IMVI; 89.5 µM (inactive) in the test with M14. In addition, the GI50 is 36.7 µM (inactive) with NCI-H23; 36.1 µM (inactive) in the test on HL-60; 35.2 µM (inactive) in the test on IGROV-1; 76 µM (inactive) in the test on Malme-3M; 35.6 µM (inactive) in the test with MCF7; 67.6 µM (inactive) with SF-268. Further, the GI50 in the test on BT-549 is 78.9 µM (inactive); in the test on PC-3, 26.1 µM (inactive); with ACHN, > 100 µM (inactive); in the test with HT-29, 43.5 µM (inactive); in the test with NCI-H226 it was > 100 µM (inactive); in the test on SF-295, 36.6 µM (inactive). Besides, the GI50 was 83.2 µM (inactive) in the test with DU-145 and 23.8 µM (inactive) in the test on KM12.
Take `CCCCCC1=C/C(=C\c2[nH]c(-c3ccc[nH]3)cc2OC)N=C1C`: the GI50 is < 0.01 µM (active) with MDA-MB-231; < 0.01 µM (active) in the test on CCRF-CEM; < 0.01 µM (active) with SW-620; 0.0215 µM (active) with SK-MEL-28; < 0.01 µM (active) in the test on LOX IMVI; < 0.01 µM (active) in the test on M14. The GI50 with NCI-H23 is 0.0128 µM (active); in the test with HL-60 it was < 0.01 µM (active); in the test on IGROV-1, 0.017 µM (active); in the test with Malme-3M, 0.0448 µM (active); in the test with MCF7, 0.0136 µM (active); in the test with SF-268, < 0.01 µM (active). Also, the GI50 is 0.0324 µM (active) with BT-549; < 0.01 µM (active) in the test on PC-3; < 0.01 µM (active) in the test with ACHN; < 0.01 µM (active) with HT-29; 0.012 µM (active) in the test on NCI-H226; < 0.01 µM (active) in the test on SF-295. Moreover, the GI50 in the test with DU-145 and with KM12 was < 0.01 µM (active) in each case.

The values are drawn from ChEMBL document CHEMBL1201862, “PubChem BioAssay data set” (2004).
